According to PubChem BioAssay (NCI):
Where “and” joins values, the source holds several entries; their conditions need not be identical. Equal entries are not always repeated.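 A five-concentration, 48-hour dose response in 96-well plates underlies each endpoint, interpolated linearly between surrounding concentrations. GI50 marks 50% less growth. TGI marks complete inhibition of growth.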

Legend:
Test in all cases: inhibition of tumour cell growth, NCI panel, 48 h
[1] = test system: U251 CNS
[2] = test system: NCI-H23 lung
[3] = test system: IGROV1 ovarian
[4] = test system: HOP-62 NSCLC
[5] = test system: A549 NSCLC
[6] = test system: NCI-H522 lung
[7] = test system: NCI/ADR-RES ovarian
[8] = test system: MALME-3M melanoma
[9] = test system: HCC-2998 colon
[10] = test system: UACC-257 melanoma

Row | Structure (SMILES) | GI50 [1] | TGI [1] | GI50 [2] | TGI [2] | GI50 [3] | TGI [3] | GI50 [4] | TGI [4] | GI50 [5] | TGI [5] | GI50 [6] | TGI [6] | GI50 [7] | TGI [7] | GI50 [8] | TGI [8] | GI50 [9] | TGI [9] | GI50 [10] | TGI [10]
1 | O=C(NC[C@H](O)CN1CCc2ccccc2C1)c1cc(NC2COC2)ncn1 | 13000 nM | > 100 µM | 19300 nM | > 100 µM | 15700 nM | 39.9 µM | 37700 nM | > 100 µM | 39.5 µM | > 100 µM | 23000 nM | 68.3 µM | 15.9 µM | 57.9 µM | 14100 nM | 68.3 µM | 15400 nM | 29.8 µM | 19800 nM | 90.4 µM
2 | CCC(C)(C)c1ccc(OCCCCNC(=O)c2ccc3ccccc3c2O)c(C(C)(C)CC)c1 | – | > 100 µM | – | > 100 µM | – | > 100 µM | – | > 100 µM | – | > 100 µM | – | 91.2 µM | – | > 100 µM | – | > 100 µM | – | > 100 µM | – | > 100 µM
3 | O=C(/C=C/c1ccc[nH]1)c1ccc(-n2ccc(C(F)(F)F)n2)cc1 | 5550 nM | > 100 µM | > 100000 nM | > 100 µM | > 100000 nM | > 100 µM | > 100000 nM | > 100 µM | 9.64 µM | > 100 µM | 4080 nM | > 100 µM | > 100 µM | > 100 µM | > 100000 nM | > 100 µM | > 100000 nM | > 100 µM | > 100000 nM | > 100 µM
4 | CC(C)(/C=C(\C#N)C(=O)N1CCC[C@@H](n2nc(-c3ccc(Oc4ccccc4)cc3F)c3c(N)ncnc32)C1)N1CCN(C2COC2)CC1 | 7350 nM | 25.8 µM | 11000 nM | 30.9 µM | 4300 nM | 16.6 µM | 10100 nM | 25.7 µM | 6.57 µM | 25.1 µM | 2800 nM | 17.7 µM | 14.7 µM | 43.7 µM | 6070 nM | 19.5 µM | 15400 nM | 31.5 µM | 5580 nM | 20.4 µM
5 | O=C(Cc1ccc(F)c(Cl)c1)Nc1cc(C2(C(F)(F)F)CC2)nn1CC1CCCCC1 | 5130 nM | > 15 µM | 3520 nM | 12 µM | 4640 nM | > 15 µM | 3960 nM | > 15 µM | 4.6 µM | > 15 µM | 2930 nM | 9.67 µM | 3.88 µM | > 15 µM | 2700 nM | 8.06 µM | 4450 nM | > 15 µM | 3380 nM | 11.2 µM
6 | CCOC(=O)Nc1cc2c(c(N)n1)N=C(c1ccccc1)CO2 | 183 nM | 14.3 µM | 569 nM | 21.4 µM | 148 nM | 11.9 µM | 450 nM | 24.3 µM | 0.167 µM | 13.8 µM | 268 nM | 13 µM | 0.061 µM | 21.5 µM | 5110 nM | 36.2 µM | 414 nM | 8.96 µM | 17500 nM | 99.6 µM
7 | O=c1oc2ccc(-c3ccc(F)cc3F)cc2c(=O)n1-c1cccc(C(F)(F)F)c1 | 1730 nM | 12.7 µM | 687 nM | 3.59 µM | 1660 nM | 22.2 µM | 1730 nM | 4.57 µM | 1.75 µM | 34.8 µM | 343 nM | 5.61 µM | 2.2 µM | 8.9 µM | 785 nM | 4.74 µM | 2640 nM | 7.94 µM | 274 nM | 3.31 µM
8 | COc1ccc(C(=O)Nc2ccc(O)c(=O)cc2)cc1 | – | > 100 µM | – | > 100 µM | – | > 100 µM | – | > 100 µM | – | > 100 µM | – | 63.1 µM | – | > 100 µM | – | > 100 µM | – | > 100 µM | – | > 100 µM
9 | COc1cc(Cl)cc(-c2nn(-c3cccc(NC(=O)c4ccc(N5CCOCC5)c(C(F)(F)F)c4)c3)cc2-c2ccncc2)c1 | 5030 nM | > 100 µM | 30700 nM | > 100 µM | > 100000 nM | > 100 µM | 62500 nM | > 100 µM | 9.15 µM | > 100 µM | 4720 nM | > 100 µM | 6.17 µM | > 100 µM | 28300 nM | > 100 µM | 6060 nM | 74.7 µM | 21700 nM | 69.1 µM
10 | CC1CC2CCCC(O)=C2C(=O)O1 (stereo not given) | – | > 100 µM | – | > 100 µM | – | > 100 µM | – | > 100 µM | – | > 100 µM | – | > 100 µM | – | > 100 µM | – | > 100 µM | – | > 100 µM | – | > 100 µM
11 | Cc1nnc(Nc2ccc(NC(=O)Nc3ccc(Cl)cc3)cc2)c2ccccc12 | 1980 nM | 3.75 µM | 2380 nM | 6.31 µM | 3980 nM | 19.5 µM | 1810 nM | 3.7 µM | 3.24 µM | 8.59 µM | 1840 nM | 3.88 µM | 3.63 µM | 14.9 µM | 2170 nM | 4.79 µM | 2840 nM | 8.09 µM | 2390 nM | 5.3 µM
12 | Cc1cc(N[C@@H]2CCC[C@H](Nc3ccnc4cc(Cl)ccc34)C2)nc(N2CCCCCC2)n1 | 1730 nM | 3.41 µM | 2030 nM | 5.43 µM | – | – | 1370 nM | 3.03 µM | 2.19 µM | 4.94 µM | 1930 nM | 4 µM | 1.69 µM | 3.9 µM | 1830 nM | 3.42 µM | 1720 nM | 3.29 µM | 2350 nM | 4.19 µM
13 | N=c1c2c(-c3ccccc3)c(-c3ccccc3)n(Cc3ccccc3)c2ncn1C1CCC(O)CC1 (stereo not given) | 150 nM | 5.3 µM | 836 nM | 22 µM | 90.2 nM | 4.49 µM | 261 nM | 14.8 µM | 0.103 µM | 12.9 µM | 576 nM | 5.61 µM | 0.717 µM | 18.4 µM | 389 nM | 1.68 µM | 1060 nM | 5.03 µM | 469 nM | 1.91 µM
14 | O=C(Nc1cc(C(F)(F)F)cc(C(F)(F)F)c1)c1cc(Cl)ccc1O | 234 nM and 228 nM | > 9.5 µM and 7.9 µM | 218 nM and 263 nM | 0.754 µM and 1.34 µM | 271 nM and 357 nM | > 2.34 µM and 11.9 µM | 260 nM and 355 nM | 1.2 µM and 4.38 µM | 0.293 µM and 0.319 µM | > 4.32 µM and 12.8 µM | 186 nM and 214 nM | 0.818 µM and 1.9 µM | 0.227 µM and 0.257 µM | > 2.76 µM and 3.87 µM | 225 nM and 200 nM | 1.16 µM and 0.668 µM | 307 nM and 349 nM | 1.33 µM and 3.63 µM | 196 nM and 194 nM | 0.75 µM and 1.21 µM
15 | O=c1c(F)cn(Cc2ccc(C34CC5CC(CC(C5)C3)C4)c(O)c2)c(=O)n1Cc1ccc(C23CC4CC(CC(C4)C2)C3)c(O)c1 | 6890 nM | 19.5 µM | 15600 nM | 32 µM | – | – | 17500 nM | 33.1 µM | 4.2 µM | > 100 µM | 15900 nM | 32.9 µM | 14.3 µM | 28.9 µM | 14800 nM | 29.2 µM | 17800 nM | 33.2 µM | 20700 nM | 50.7 µM
16 | COc1cc(C(=O)N2CCN(C(=O)c3cc(OC)c(OC)c(OC)c3)C2=S)cc(OC)c1OC | 16300 nM | 34.4 µM | 18700 nM | 37.5 µM | 24700 nM | 56.6 µM | 15200 nM | 38.9 µM | 19.9 µM | 56.7 µM | 3670 nM | 16.3 µM | 26.8 µM | 74.5 µM | 13400 nM | 27 µM | 19000 nM | 40 µM | 21700 nM | 43.9 µM
17 | CCN(CC)CCNc1nc(N)c(C#N)c(C#N)c1C#N | – | > 10 µM | – | > 10 µM | – | > 10 µM | – | > 10 µM | – | > 10 µM | – | > 10 µM | – | > 10 µM | – | > 10 µM | – | > 10 µM | – | > 10 µM
18 | COc1ccc2nc3ccccc3c(NCc3ccc(F)cc3)c2c1 | 1940 nM | 7.82 µM | 1890 nM | 8.46 µM | 1800 nM | 6.65 µM | 2340 nM | 10.9 µM | 1.99 µM | 9.89 µM | 2060 nM | 9.38 µM | 1.82 µM | 8.24 µM | 1460 nM | 5.38 µM | 1000 nM | 2.1 µM | 1800 nM | 6.68 µM
19 | Clc1cc2c(c(CSc3nc4ccccc4n4cccc34)c1)OCOC2 | 17100 nM | > 100 µM | 26300 nM | > 100 µM | 4260 nM | > 100 µM | 10300 nM | 31.8 µM | > 100 µM | > 100 µM | 23400 nM | > 100 µM | 61 µM | > 100 µM | 29600 nM | > 100 µM | > 100000 nM | > 100 µM | > 100000 nM | > 100 µM
20 | C[C@@H]1C[C@@H]([C@@H](CC2CC(=O)NC(=O)C2)OC(=O)CC(=O)c2ccccc2)C(=O)[C@@H](C)C1 | 925 nM | > 100 µM | 545 nM | > 80.6 µM | 620 nM | – | 990 nM | > 100 µM | 0.567 µM | > 100 µM | 191 nM | 4.32 µM | 0.689 µM | > 100 µM | 496 nM | 13.6 µM | 373 nM | > 26.5 µM | 358 nM | 13 µM
